The numbers were not newly measured in US20220331268A1, “TREATMENT OF SKIN DISORDERS WITH TOPICAL COMBINATION COMPOSITIONS COMPRISING TAPINAROF AND AN ADDITIONAL AHR ACTIVATOR” (Sol-Gel Technologies Ltd., priority 2019, published 2022), which cites them from elsewhere.

Structures are written as SMILES.

For series [1] the following is noted: psoriasis treatment, single drug; placebo 20.2%.
For series [2] the following is noted: across all groups treated.
The conditions of series [3]: 1% tapinarof arm compared with 0.5% arm or vehicle.
The test system of series [4] is interleukin-6 and interleukin-17A. The note with it: mouse models and in vitro human skin studies.

`CC(C)c1c(O)cc(/C=C/c2ccccc2)cc1O` [Tapinarof, 3,5-dihydroxy-4-isopropyl-trans-stilbene]: the adverse effects in series [1] was 44.5%. In series [2], the “contact dermatitis (side-effect, among most common)” value is recorded as > 5% and the “folliculitis (side-effect)” value is given as 9%. In series [3], the efficacy result was “higher efficacy” and the onset of action entry was “quicker onset of action”. Further, in series [4], the “effect on proinflammatory mediators including interleukin-6 and interleukin-17A” value is “inhibit”; the skin barrier function entry is “enhance skin barrier function”.

Consider `C=C1/C(=C\C=C2/CCC[C@]3(C)[C@@H]([C@H](C)/C=C/[C@@H](O)C4CC4)CC[C@@H]23)C[C@@H](O)C[C@@H]1O` [calcipotriene], for which, in series [1], the adverse effects is recorded as 19.5%.
